The record followed here is ChEMBL document CHEMBL1201862, “PubChem BioAssay data set” (2004).

Some test systems named below: U-251; SF-539; NCI-H522; OVCAR-8; LOX IMVI; CAKI-1; SK-MEL-5; SNB-19; SW-620; KM12; NCI-H226; MOLT-4; HCT-15; UACC-257; ACHN; HCT-116; SN12C; RPMI-8226; SF-295; IGROV-1.
Test in all cases: growth of human tumour cells (NCI), 48 h

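48-hour exposure; five concentrations; linearly interpolated endpoints. The concentration for 50% growth inhibition is given as GI50.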 The source made the active and inactive calls. Rule as the data show it: active = GI50 up to about 1.1 µM and inactive = higher.

For the compound `CC(=O)C1C(=O)C(C(C)=O)C2C3C=CC(C3)C12` (stereo not given), the GI50 in the assay with U-251, with SF-539, with NCI-H522, in the assay with OVCAR-8, with LOX IMVI and in the assay on CAKI-1 was > 100 µM (inactive) throughout. In addition, the GI50 in the assay with SK-MEL-5, with SNB-19, in the assay on SW-620, in the assay on KM12, in the assay with NCI-H226 and in the assay on MOLT-4 was > 100 µM (inactive) each time. The GI50 was over 100 µM in the assay with HCT-15; > 100 µM (inactive) in the assay with UACC-257; > 100 µM (inactive) in the assay with ACHN; > 100 µM (inactive) in the assay with HCT-116; > 100 µM (inactive) with SN12C; > 100 µM (inactive) in the assay on RPMI-8226. In addition, the GI50 in the assay with SF-295 and in the assay on IGROV-1 was > 100 µM (inactive) in each case.
Regarding `NC(=O)C(=O)C(c1ccccc1)S(=O)(=O)Cc1ccccc1` (stereo not given), the GI50 in the assay on U-251, in the assay with SF-539, in the assay with NCI-H522, in the assay with OVCAR-8, with LOX IMVI and in the assay on CAKI-1 was > 100 µM (inactive) each time. Also, the GI50 is > 100 µM (inactive) with SK-MEL-5; > 100 µM (inactive) in the assay with SNB-19; > 100 µM (inactive) with SW-620; > 100 µM (inactive) in the assay on KM12; > 100 µM (inactive) in the assay on NCI-H226; 16.5 µM (inactive) with MOLT-4. Further, the GI50 is over 100 µM with HCT-15; > 100 µM (inactive) with UACC-257; > 100 µM (inactive) in the assay with ACHN; > 100 µM (inactive) with HCT-116; > 100 µM (inactive) with SN12C; > 100 µM (inactive) in the assay on RPMI-8226. Moreover, the GI50 in the assay on SF-295 and in the assay on IGROV-1 was > 100 µM (inactive) each time.
Turning to `O=C(C[n+]1ccccc1)NNC(=O)/C(=C/c1ccc2c(c1)OCO2)NC(=O)c1ccccc1`, the GI50 in the assay with U-251 was 28.2 µM (inactive); in the assay on SF-539 it was 29.4 µM (inactive); in the assay with NCI-H522, 29 µM (inactive); in the assay with OVCAR-8 it was 30 µM (inactive); in the assay with LOX IMVI, 20.6 µM (inactive); in the assay with CAKI-1 it was > 100 µM (inactive). The GI50 is 32.4 µM (inactive) in the assay on SK-MEL-5; 68.9 µM (inactive) in the assay on SNB-19; 34.8 µM (inactive) in the assay on SW-620; 35.2 µM (inactive) with KM12; 36.7 µM (inactive) in the assay with NCI-H226; 30.4 µM (inactive) in the assay on MOLT-4. Moreover, the GI50 was 28.6 µM with HCT-15; > 100 µM (inactive) in the assay on UACC-257; > 100 µM (inactive) in the assay on ACHN; 68.9 µM (inactive) in the assay on HCT-116; > 100 µM (inactive) with SN12C; 24.5 µM (inactive) in the assay with RPMI-8226. Further, the GI50 is > 79.3 µM (inactive) in the assay with SF-295 and 44.7 µM (inactive) in the assay on IGROV-1.
As for `COc1cc(C2C3=C(COC3=O)Oc3cc4c(cc32)OCO4)ccc1OC(C)=O` (stereo not given), the GI50 was 0.492 µM (active) with U-251; 0.25 µM (active) in the assay with SF-539; 0.0948 µM (active) in the assay with NCI-H522; 0.752 µM (active) with OVCAR-8; 0.708 µM (active) in the assay with LOX IMVI; 0.303 µM (active) in the assay on CAKI-1. Also, the GI50 with SK-MEL-5 was 0.106 µM (active); in the assay with SNB-19, 0.35 µM (active); in the assay with SW-620, 0.284 µM (active); in the assay on KM12, 0.255 µM (active); with NCI-H226, 5.14 µM (inactive); in the assay on MOLT-4 it was 0.536 µM (active). The GI50 is 0.468 µM in the assay with HCT-15; > 100 µM (inactive) with UACC-257; 0.55 µM (active) in the assay on ACHN; 0.398 µM (active) with HCT-116; 2.19 µM (inactive) in the assay on SN12C; 0.34 µM (active) in the assay on RPMI-8226. The GI50 was 0.127 µM (active) with SF-295 and 0.238 µM (active) in the assay on IGROV-1.
For the compound `COc1ccc(/C=C2\CC3C4CC=C5C[C@@H](N6CCCC6)CC[C@]5(C)C4CC[C@]3(C)[C@H]2O)cc1OC` (stereo not given in full), the GI50 was 8.45 µM (inactive) in the assay with U-251; 7.06 µM (inactive) in the assay with SF-539; 8.22 µM (inactive) with NCI-H522; 10.6 µM (inactive) with OVCAR-8; 8.97 µM (inactive) with LOX IMVI; 8.65 µM (inactive) in the assay with CAKI-1. Moreover, the GI50 was 7.26 µM (inactive) with SK-MEL-5; 10.4 µM (inactive) in the assay with SNB-19; 15.8 µM (inactive) in the assay with SW-620; 6.56 µM (inactive) in the assay with KM12; 10.5 µM (inactive) in the assay with NCI-H226; 8.39 µM (inactive) in the assay on MOLT-4. Further, the GI50 in the assay on HCT-15 is 6.81 µM; in the assay with UACC-257 it was 8.13 µM (inactive); in the assay with ACHN it was 8.85 µM (inactive); with HCT-116 it was 8.24 µM (inactive); in the assay with SN12C, 10.2 µM (inactive); with RPMI-8226, 7.52 µM (inactive). The GI50 is 3.13 µM (inactive) in the assay with SF-295 and 10.7 µM (inactive) in the assay on IGROV-1.
On to `ClCCN1CCO/C1=N/c1ccc2c(c1)CCCC2`, for which the GI50 is 4.65 µM (inactive) in the assay on U-251; 4.81 µM (inactive) in the assay on SF-539; 10.8 µM (inactive) in the assay with NCI-H522; 5.13 µM (inactive) with OVCAR-8; 13.4 µM (inactive) with LOX IMVI; 16 µM (inactive) with CAKI-1. Also, the GI50 in the assay with SK-MEL-5 was 1.96 µM (inactive); in the assay with SNB-19 it was 5.53 µM (inactive); with SW-620, 22.3 µM (inactive); with KM12, 17.9 µM (inactive); with NCI-H226, 13.5 µM (inactive); in the assay on MOLT-4 it was 12.2 µM (inactive). Further, the GI50 is 20 µM with HCT-15; 3.82 µM (inactive) with UACC-257; 7.05 µM (inactive) in the assay with ACHN; 13.4 µM (inactive) in the assay with HCT-116; 12.6 µM (inactive) in the assay with SN12C; 4.76 µM (inactive) with RPMI-8226. In addition, the GI50 in the assay on SF-295 is 12.1 µM (inactive); in the assay with IGROV-1, 7.48 µM (inactive).
Consider `COc1ccc(/N=N/C(=O)NC(CC(C)C)C(=O)NCC(=O)O)cc1` (stereo not given), for which the GI50 with U-251 was > 100 µM (inactive); in the assay with SF-539, 4.18 µM (inactive); in the assay on NCI-H522, 22.5 µM (inactive); in the assay on OVCAR-8, 21.3 µM (inactive); in the assay on LOX IMVI, 1.37 µM (inactive); in the assay on CAKI-1 it was > 100 µM (inactive). The GI50 is 3.79 µM (inactive) with SK-MEL-5; > 92.5 µM (inactive) in the assay on SNB-19; 12.8 µM (inactive) in the assay with SW-620; 3.76 µM (inactive) in the assay on KM12; > 41 µM (inactive) with NCI-H226; 1.83 µM (inactive) in the assay with MOLT-4. Also, the GI50 with HCT-15 was 1.46 µM; with UACC-257, 32.8 µM (inactive); in the assay with ACHN, 1.54 µM (inactive); in the assay on HCT-116, 12.5 µM (inactive); in the assay with SN12C, > 46.8 µM (inactive); in the assay with RPMI-8226, 11.7 µM (inactive). In addition, the GI50 with SF-295 was 5.53 µM (inactive); in the assay with IGROV-1, 6.27 µM (inactive).
Consider `CC(C)(C)C(=O)Nc1c(C=O)ccc2[nH]cnc12`, for which the GI50 is 82.4 µM (inactive) in the assay on U-251; > 100 µM (inactive) in the assay with SF-539; > 100 µM (inactive) with NCI-H522; > 100 µM (inactive) in the assay on OVCAR-8; 62.8 µM (inactive) with LOX IMVI; 75.7 µM (inactive) with CAKI-1. For the same compound, the GI50 was 78.7 µM (inactive) with SK-MEL-5; > 100 µM (inactive) with SNB-19; > 100 µM (inactive) with SW-620; 80.4 µM (inactive) in the assay with KM12; > 100 µM (inactive) with NCI-H226; 30.5 µM (inactive) with MOLT-4. The GI50 is over 100 µM in the assay with HCT-15; 91.4 µM (inactive) in the assay with UACC-257; > 100 µM (inactive) in the assay with ACHN; > 100 µM (inactive) in the assay on HCT-116; > 100 µM (inactive) in the assay with SN12C; 89.9 µM (inactive) with RPMI-8226. Besides, the GI50 in the assay with SF-295 and with IGROV-1 was > 100 µM (inactive) each time.
Turning to `CS(=O)(=O)O[C@H]1[C@H](O)c2ccccc2[C@@H]1N=[N+]=[N-]`, the GI50 in the assay on U-251, in the assay on SF-539, in the assay on NCI-H522, with OVCAR-8, in the assay with LOX IMVI and in the assay with CAKI-1 was > 100 µM (inactive) each time. Besides, the GI50 in the assay with SK-MEL-5, with SNB-19, in the assay on SW-620, in the assay with KM12, in the assay with NCI-H226 and in the assay with MOLT-4 was > 100 µM (inactive) each time. The GI50 was over 100 µM in the assay on HCT-15; > 100 µM (inactive) with UACC-257; > 100 µM (inactive) with ACHN; > 100 µM (inactive) in the assay on HCT-116; > 100 µM (inactive) with SN12C; > 100 µM (inactive) in the assay on RPMI-8226. Moreover, the GI50 with SF-295 and with IGROV-1 was > 100 µM (inactive) each time.
Take `CN1C(c2ccccc2)CC(=NO)CC1c1ccccc1` (stereo not given): the GI50 in the assay with U-251 was 67.6 µM (inactive); in the assay on SF-539, 41.2 µM (inactive); with NCI-H522 it was 25.6 µM (inactive); in the assay with OVCAR-8, 47.4 µM (inactive); in the assay with LOX IMVI, 19.7 µM (inactive); in the assay on CAKI-1, 48.2 µM (inactive). Besides, the GI50 was 38.2 µM (inactive) in the assay with SK-MEL-5; > 100 µM (inactive) in the assay on SNB-19; 48.8 µM (inactive) in the assay with SW-620; 31.6 µM (inactive) with KM12; 74 µM (inactive) with NCI-H226; 19.2 µM (inactive) in the assay on MOLT-4. For the same compound, the GI50 in the assay with HCT-15 is 37.9 µM; in the assay with UACC-257 it was 55.1 µM (inactive); in the assay on ACHN, 41.4 µM (inactive); in the assay with HCT-116, 19.3 µM (inactive); in the assay with SN12C, 24.9 µM (inactive); in the assay with RPMI-8226 it was 24 µM (inactive). The GI50 in the assay on SF-295 was 41.5 µM (inactive); in the assay on IGROV-1, > 100 µM (inactive).
